Data published in US20130310256A1, “HERBICIDAL COMPOSITIONS COMPRISING 4-AMINO-3-CHLORO-5-FLUORO-6-(4-CHLORO-2-FLUORO-3-METHOXYPHENYL) PYRIDINE-2-CARBOXYLIC ACID OR A DERIVATIVE THEREOF AND VLCFA AND LIPID SYNTHESIS INHIBITING HERBICIDES” (DOW AGROSCIENCES LLC, priority 2008, published 2013).

Experiments:
DIGSA = test: Example I: postemergence foliar-applied weed control, greenhouse; type: in vivo, Digitaria sanguinalis (L.) Scop. (large crabgrass); conditions: 20 DAA
Text: (§1) Seeds or nutlets of the desired test plant species were planted in a soil matrix prepared by mixing a loam or sandy loam soil (e.g., 28.6 percent silt, 18.8 percent clay, and 52.6 percent sand, with a pH of about 5.8 and an organic matter content of about 1.8 percent) and calcareous grit in an 80 to 20 ratio. The soil matrix was contained in plastic pots with a volume of 1 quart and a surface area of 83.6 square centimeters (cm^2). When required to ensure good germination and healthy plants, a fungicide treatment and/or other chemical or physical treatment was applied. The plants were grown for 8-22 days in a greenhouse with an approximate 14 hr photoperiod which was maintained at about 29° C. during the day and 26° C. during the night. Nutrients (Peters Excel® 15-5-15 5-Ca 2-Mg and iron chelate) were applied in the irrigation solution as needed and water was added on a regular basis. Supplemental lighting was provided with overhead metal halide 1000-Watt lamps as necessary. The plants were employed for testing when they reached the first through fourth true leaf stage.
(§2) Treatments consisted of the acid or esters of 4-amino-3-chloro-5-fluoro-6-(4-chloro-2-fluoro-3-methoxy-phenyl)pyridine-2-carboxylic acid (Compound A), each formulated as an SC (suspension concentrate), and various herbicidal components alone and in combination. Forms of compound A were applied on an acid equivalent basis.
(§3) Other herbicidal components were applied on an active ingredient basis and included very long chain fatty acid (VLCFA) synthesis-inhibiting and fatty acid/lipid synthesis-inhibiting herbicides acetochlor (technical grade material), acetochlor+dichlormid formulated as Topnotch®, pretilachlor (technical grade material), butachlor formulated as Butachlor EC, fentrazamide formulated as Fentrazamide EC, thiobencarb formulated as Bolero® 8EC, cafenstrole formulated as Himeadow® WP or Lapost® Flowable, benfuresate formulated as Full Shot®, dimethenamid-P formulated as Outlook®, indanofan (technical grade material), flufenacet formulated as Define® DF, mefenacet (technical grade material), S-metolachlor formulated as Dual® II Magnum, pethoxamid formulated as Successor® 600, and pyroxasulfone (technical grade material).
(§4) Treatment requirements were calculated based upon the rates being tested, the concentration of active ingredient or acid equivalent in the formulation, and a 12 mL application volume at a rate of 187 L/ha.
(§5) For treatments comprised of formulated compounds, measured amounts of compounds were placed individually in 25 mL glass vials and diluted in a volume of 1.25% (v/v) Agri-Dex® crop oil concentrated to obtain 12× stock solutions. […] Application solutions were prepared by adding an appropriate amount of each stock solution (e.g., 1 mL) and diluted to the appropriate final concentrations with the addition of 10 mL of an aqueous mixture of 1.25% (v/v) crop oil concentrate so that the final spray solutions contained 1.25+/−0.05% (v/v) crop oil concentrate.
(§6) For treatments comprised of technical compounds, weighed amounts can be placed individually in 25 mL glass vials and dissolved in a volume of 97:3 v/v acetone/DMSO to obtain 12× stock solutions. […] Application solutions can be prepared by adding an appropriate amount of each stock solution (e.g., 1 mL) and diluted to the appropriate final concentrations with the addition of 10 mL of an aqueous mixture of 1.5% (v/v) crop oil concentrate so that the final spray solutions contain 1.25% (v/v) crop oil concentrate. When technical materials are used, the concentrated stock solutions can be added to the spray solutions so that the final acetone and DMSO concentrations of the application solutions are […], respectively. […]

ECHCG [1] = test: Example II: in-water applied weed control, transplanted paddy rice, greenhouse; type: in vivo, Echinochloa crus-galli (L.) Beauv. (barnyardgrass); conditions: 100 gai/ha
Method: (§7) Weed seeds or nutlets of the desired test plant species were planted in puddled soil (mud) prepared by mixing a shredded, non-sterilized mineral soil (50.5 percent silt, 25.5 percent clay, and 24 percent sand, with a pH of about 7.6 and an organic matter content of about 2.9 percent) and water at a 1:1 volumetric ratio. The prepared mud was dispensed in 365 mL aliquots into 16-ounce (oz.) non-perforated plastic pots with a surface area of 86.59 square centimeters (cm^2) leaving a headspace of 3 centimeters (cm) in each pot. Mud was allowed to dry overnight prior to planting or transplanting. Rice seeds were planted in Sun Gro MetroMix® 306 planting mixture, which typically has a pH of 6.0 to 6.8 and an organic matter content of about 30 percent, in plastic plug trays. Seedlings at the second or third leaf stage of growth were transplanted into 840 mL of mud contained in 32-oz. non-perforated plastic pots with a surface area of 86.59 cm^2 4 days prior to herbicide application. The paddy was created by filling the headspace of the pots with 2.5 to 3 cm of water. When required to ensure good germination and healthy plants, a fungicide treatment and/or other chemical or physical treatment was applied. The plants were grown for 4-22 days in a greenhouse with an approximate 14 hr photoperiod which was maintained at about 29′C during the day and 26° C. during the night. Nutrients were added as Osmocote® (19:6:12, N:P:K+ minor nutrients) at 2 g per 16-oz. pot and 4 g per 32-oz. pot. Water was added on a regular basis to maintain the paddy flood, and supplemental lighting was provided with overhead metal halide 1000-Watt lamps as necessary. The plants were employed for testing when they reached the first through fourth true leaf stage.
(§8) Treatments consisted of the acid or esters of 4-amino-3-chloro-5-fluoro-6-(4-chloro-2-fluoro-3-methoxy-phenyl)pyridine-2-carboxylic acid (compound A) each formulated as an SC (suspension concentrate) and various herbicidal components alone and in combination. Forms of compound A were applied on an acid equivalent basis.
(§9) The herbicidal components were applied on an active ingredient basis and included very long chain fatty acid (VLCFA) synthesis-inhibiting and fatty acid/lipid synthesis-inhibiting herbicides acetochlor (technical grade material), acetochlor+dichlormid formulateded as Topnotch®, pretilachlor (technical grade material), butachlor formulated as Butachlor EC, fentrazamide formulated as Fentrazamide EC, thiobencarb formulated as Bolero® 8EC, cafenstrole formulated as Himeadow® WP or Lapost® Flowable, benfuresate formulated as Full Shot®, anilofos (technical grade material), mefenacet (technical grade material), molinate (technical grade material), and thenylchlor (technical grade material).
(§10) Treatment requirements for each compound or herbicidal component were calculated based upon the rates being tested, the concentration of active ingredient or acid equivalent in the formulation, an application volume of 2 mL per component per pot, and an application area of 86.59 cm^2 per pot.
(§11) For formulated compounds, a measured amount was placed in an individual 100 or 200 mL glass vial and was dissolved in a volume of 1.25% (v/v) Agri-Dex® crop oil concentrate to obtain application solutions.
(§12) For technical grade compounds, a weighed amount was placed in an individual 100 to 200 mL glass vial and was dissolved in a volume of acetone to obtain concentrated stock solutions. […] The concentrated stock solutions obtained were diluted with an equivalent volume of an aqueous mixture containing 2.5% (v/v) crop oil concentrate so that the final application solutions contained 1.25% (v/v) crop oil concentrate.
(§13) Applications were made by injecting with a pipetter appropriate amounts of the application solutions, individually and sequentially, into the aqueous layer of the paddy. Control plants were treated in the same manner with the solvent blank. […]

ECHOR = test: as above; type: in vivo, Echinochloa oryzoides (Ard.) Fritsch (early watergrass); conditions: for Visual Weed Control ECHOR Obs: 19 DAA
Method: as §7, §8, §9, §10, §11, §12, §13

CYPRO = test: as above; type: in vivo, Cyperus rotundus L. (purple nutsedge); conditions: for Visual Weed Control CYPRO Obs: 19 DAA
Method: as §7, §8, §9, §10, §11, §12, §13

BRAPP = test: Example I: postemergence foliar-applied weed control, direct seeded rice weeds, greenhouse; type: in vivo; conditions: 20 DAA
Text: as §1, §2, §3, §4, §5, §6

FIMMI = test: Example II: in-water applied weed control, transplanted paddy rice, greenhouse; type: in vivo, Fimbristylis miliacea (L.) Vahl (globe fringerush); conditions: for Visual Weed Control FIMMI Obs: 19 DAA
Method: as §7, §8, §9, §10, §11, §12, §13

ECHCG [2] = test: Example I: postemergence foliar-applied weed control, greenhouse; type: in vivo, Echinochloa crus-galli (L.) Beauv. (barnyardgrass); conditions: 20 DAA
Text: as §1, §2, §3, §4, §5, §6

ECHCO = test: as above; type: in vivo, Echinochloa colona (L.) Link (junglerice); conditions: 20 DAA
Text: as §1, §2, §3, §4, §5, §6

LEFCH = test: as above; type: in vivo, Leptochloa chinensis (L.) Nees (Chinese sprangletop); conditions: 20 DAA
Text: as §1, §2, §3, §4, §5, §6

Compound: CCOCN(C(=O)CCl)c1c(C)cccc1CC [Acetochlor, 2-chloro-N-(ethoxymethyl)-N-(2-ethyl-6-methylphenyl)acetamide]
- Visual Weed Control Obs (DIGSA; 100 gai/ha): 20%
- Visual Weed Control Obs (DIGSA; 200 gai/ha): 20%
- Visual Weed Control (%) - 22 DAA ECHCG Obs (ECHCG [1]): 65%
- Visual Weed Control (%) - 20 DAA ECHOR Obs (ECHOR; 100 gai/ha): 80%
- Visual Weed Control (%) - 20 DAA CYPRO Obs (CYPRO; 100 gai/ha): 20%
- Visual Weed Control (%) - 20 DAA CYPRO Obs (CYPRO; 200 gai/ha): 75%
- Visual Weed Control Obs (BRAPP; 100 gai/ha): 20%
- Visual Weed Control Obs (BRAPP; 200 gai/ha): 30%
- Visual Weed Control (%) - 20 DAA FIMMI Obs (FIMMI; 100 gai/ha): 80%
- Visual Weed Control (%) - 20 DAA FIMMI Obs (FIMMI; 200 gai/ha): 20%
- Visual Weed Control Obs (ECHCG [2]; 50 gai/ha): 0%
- Visual Weed Control Obs (ECHCG [2]; 100 gai/ha): 10%

Compound: CCN(C(=O)n1nnn(-c2ccccc2Cl)c1=O)C1CCCCC1 [Fentrazamide, 4-(2-chlorophenyl)-N-cyclohexyl-N-ethyl-4,5-dihydro-5-oxo-1H-tetrazole-1-carboxamide]
- Visual Weed Control Obs (DIGSA; 33.75 gai/ha): 0%
- Visual Weed Control Obs (DIGSA; 67.5 gai/ha): 30%
- Visual Weed Control (%) - 21 DAA ECHOR Obs (ECHOR; 50 gai/ha): 50%
- Visual Weed Control Obs (ECHCO; 16.88 gai/ha): 0%
- Visual Weed Control Obs (ECHCO; 33.75 gai/ha): 15%
- Visual Weed Control Obs (ECHCO; 67.5 gai/ha): 10%
- Visual Weed Control Obs (BRAPP; 16.88 gai/ha): 0%
- Visual Weed Control Obs (BRAPP; 33.75 gai/ha): 0%
- Visual Weed Control Obs (BRAPP; 67.5 gai/ha): 55%
- Visual Weed Control Obs (ECHCG [2]; 16.88 gai/ha): 0%
- Visual Weed Control Obs (ECHCG [2]; 33.75 gai/ha): 0%
- Visual Weed Control Obs (ECHCG [2]; 67.5 gai/ha): 20%
- Visual Weed Control Obs (ECHCG [2]; 75 gai/ha): 0%
- Visual Weed Control Obs (ECHCG [2]; 150 gai/ha): 5%
- Visual Weed Control Obs (ECHCG [2]; 300 gai/ha): 13%
- Visual Weed Control Obs (LEFCH; 33.75 gai/ha): 0%
- Visual Weed Control Obs (LEFCH; 67.5 gai/ha): 0%

Compound: S-[2-[(4-chlorophenyl)(1-methylethyl)amino]-2-oxoethyl]O,O-dimethyl phosphorodithioate [Anilofos]
- Visual Weed Control ECHCG Obs (ECHCG [1]; 19 DAA): 20%
- Visual Weed Control ECHOR Obs (ECHOR; 100 gai/ha): 40%
- Visual Weed Control ECHOR Obs (ECHOR; 200 gai/ha): 80%
- Visual Weed Control CYPRO Obs (CYPRO; 100 gai/ha): 0%
- Visual Weed Control CYPRO Obs (CYPRO; 200 gai/ha): 0%
- Visual Weed Control CYPRO Obs (CYPRO; 400 gai/ha): 0%
- Visual Weed Control FIMMI Obs (FIMMI; 100 gai/ha): 0%
- Visual Weed Control FIMMI Obs (FIMMI; 200 gai/ha): 0%
- Visual Weed Control FIMMI Obs (FIMMI; 400 gai/ha): 10%
